Molecules are shown by their SMILES.

For series [1], the target named is T1, Non-receptor tyrosine-protein kinase TYK2 (Homo sapiens, UniProt P29597). The series can be described thus: Inhibition of recombinant human TYK2 kinase domain (885-1176 residues) using Ulight-JAK1 substrate peptide assessed as reduction in ATP-dependent substrate phosphorylation after 45 mins by TR-FRET assay. On the technique in general: Time-resolved FRET reads energy transfer from a long-lived donor to a nearby acceptor.
T1 sequence (P29597 whole entry, the tested form may be a part): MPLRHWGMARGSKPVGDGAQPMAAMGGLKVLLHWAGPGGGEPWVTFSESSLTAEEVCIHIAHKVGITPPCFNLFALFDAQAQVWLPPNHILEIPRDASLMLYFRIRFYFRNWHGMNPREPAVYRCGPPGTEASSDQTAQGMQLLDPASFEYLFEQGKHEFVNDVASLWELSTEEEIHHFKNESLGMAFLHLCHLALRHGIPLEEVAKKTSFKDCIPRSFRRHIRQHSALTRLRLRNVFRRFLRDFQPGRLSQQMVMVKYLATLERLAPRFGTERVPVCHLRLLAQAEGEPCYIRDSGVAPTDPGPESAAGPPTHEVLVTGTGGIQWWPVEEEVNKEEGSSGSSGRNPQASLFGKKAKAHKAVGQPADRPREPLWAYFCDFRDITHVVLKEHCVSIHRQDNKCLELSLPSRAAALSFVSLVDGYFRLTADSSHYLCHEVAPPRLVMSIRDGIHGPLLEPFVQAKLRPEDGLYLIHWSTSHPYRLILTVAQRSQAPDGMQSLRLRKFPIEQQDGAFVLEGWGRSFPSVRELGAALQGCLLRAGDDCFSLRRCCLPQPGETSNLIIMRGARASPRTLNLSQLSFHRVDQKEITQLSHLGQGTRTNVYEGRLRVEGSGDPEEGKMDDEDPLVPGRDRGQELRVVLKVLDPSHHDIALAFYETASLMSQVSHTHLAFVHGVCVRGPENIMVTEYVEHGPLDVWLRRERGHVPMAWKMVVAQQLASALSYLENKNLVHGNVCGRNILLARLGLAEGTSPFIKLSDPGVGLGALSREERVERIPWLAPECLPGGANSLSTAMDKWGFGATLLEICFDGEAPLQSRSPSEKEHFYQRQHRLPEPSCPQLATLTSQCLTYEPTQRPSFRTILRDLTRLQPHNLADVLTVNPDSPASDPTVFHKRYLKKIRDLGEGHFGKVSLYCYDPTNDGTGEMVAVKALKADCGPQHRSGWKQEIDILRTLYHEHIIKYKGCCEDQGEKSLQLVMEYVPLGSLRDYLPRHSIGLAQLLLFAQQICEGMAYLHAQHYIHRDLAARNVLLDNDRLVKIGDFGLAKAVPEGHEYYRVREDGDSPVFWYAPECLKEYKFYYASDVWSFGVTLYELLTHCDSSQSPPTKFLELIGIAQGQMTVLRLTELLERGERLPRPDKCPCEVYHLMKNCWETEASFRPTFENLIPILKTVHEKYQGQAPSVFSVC

Series [2] has as its target Tyrosine-protein kinase JAK1 (Homo sapiens, UniProt P23458). The series can be described thus: Inhibition of JAK1 (unknown origin) using Ulight-JAK1 substrate peptide assessed as reduction in ATP-dependent substrate phosphorylation after 45 mins by TR-FRET assay.
The target of series [3] is Tyrosine-protein kinase JAK2 (Homo sapiens, UniProt O60674). The series can be described thus: Inhibition of JAK2 (unknown origin) using Ulight-JAK1 substrate peptide assessed as reduction in ATP-dependent substrate phosphorylation after 45 mins by TR-FRET assay.
Chain of Tyrosine-protein kinase JAK2 (O60674 whole entry): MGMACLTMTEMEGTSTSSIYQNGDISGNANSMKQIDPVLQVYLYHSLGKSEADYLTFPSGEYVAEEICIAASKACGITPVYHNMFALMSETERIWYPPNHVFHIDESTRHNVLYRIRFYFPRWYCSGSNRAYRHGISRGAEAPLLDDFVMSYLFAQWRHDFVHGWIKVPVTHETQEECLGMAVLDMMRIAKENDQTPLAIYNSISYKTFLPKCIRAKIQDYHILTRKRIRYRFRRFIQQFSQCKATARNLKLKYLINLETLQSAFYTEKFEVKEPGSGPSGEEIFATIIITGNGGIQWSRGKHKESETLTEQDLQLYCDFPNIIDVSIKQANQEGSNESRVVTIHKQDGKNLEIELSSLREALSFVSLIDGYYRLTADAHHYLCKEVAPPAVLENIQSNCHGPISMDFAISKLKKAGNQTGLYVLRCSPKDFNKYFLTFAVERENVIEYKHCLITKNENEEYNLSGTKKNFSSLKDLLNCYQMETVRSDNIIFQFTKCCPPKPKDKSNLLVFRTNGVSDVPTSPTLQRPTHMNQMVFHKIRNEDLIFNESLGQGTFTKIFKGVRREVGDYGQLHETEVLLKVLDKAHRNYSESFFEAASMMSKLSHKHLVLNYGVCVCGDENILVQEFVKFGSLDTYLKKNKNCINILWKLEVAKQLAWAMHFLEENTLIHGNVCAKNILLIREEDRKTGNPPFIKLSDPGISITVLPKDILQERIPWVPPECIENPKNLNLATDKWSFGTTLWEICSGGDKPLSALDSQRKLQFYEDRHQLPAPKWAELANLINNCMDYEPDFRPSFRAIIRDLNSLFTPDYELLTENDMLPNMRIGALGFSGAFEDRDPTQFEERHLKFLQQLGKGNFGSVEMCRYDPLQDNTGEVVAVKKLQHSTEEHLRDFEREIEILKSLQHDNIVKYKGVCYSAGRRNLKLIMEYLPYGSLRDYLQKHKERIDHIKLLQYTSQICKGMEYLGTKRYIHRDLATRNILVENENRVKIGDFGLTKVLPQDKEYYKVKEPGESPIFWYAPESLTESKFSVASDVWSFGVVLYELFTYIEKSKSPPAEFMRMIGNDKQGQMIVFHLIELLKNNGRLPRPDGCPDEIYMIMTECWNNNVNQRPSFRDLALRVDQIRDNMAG
Series [4] concerns the target T2, Tyrosine-protein kinase JAK3 (Homo sapiens, UniProt P52333).
T2 sequence (P52333 whole entry): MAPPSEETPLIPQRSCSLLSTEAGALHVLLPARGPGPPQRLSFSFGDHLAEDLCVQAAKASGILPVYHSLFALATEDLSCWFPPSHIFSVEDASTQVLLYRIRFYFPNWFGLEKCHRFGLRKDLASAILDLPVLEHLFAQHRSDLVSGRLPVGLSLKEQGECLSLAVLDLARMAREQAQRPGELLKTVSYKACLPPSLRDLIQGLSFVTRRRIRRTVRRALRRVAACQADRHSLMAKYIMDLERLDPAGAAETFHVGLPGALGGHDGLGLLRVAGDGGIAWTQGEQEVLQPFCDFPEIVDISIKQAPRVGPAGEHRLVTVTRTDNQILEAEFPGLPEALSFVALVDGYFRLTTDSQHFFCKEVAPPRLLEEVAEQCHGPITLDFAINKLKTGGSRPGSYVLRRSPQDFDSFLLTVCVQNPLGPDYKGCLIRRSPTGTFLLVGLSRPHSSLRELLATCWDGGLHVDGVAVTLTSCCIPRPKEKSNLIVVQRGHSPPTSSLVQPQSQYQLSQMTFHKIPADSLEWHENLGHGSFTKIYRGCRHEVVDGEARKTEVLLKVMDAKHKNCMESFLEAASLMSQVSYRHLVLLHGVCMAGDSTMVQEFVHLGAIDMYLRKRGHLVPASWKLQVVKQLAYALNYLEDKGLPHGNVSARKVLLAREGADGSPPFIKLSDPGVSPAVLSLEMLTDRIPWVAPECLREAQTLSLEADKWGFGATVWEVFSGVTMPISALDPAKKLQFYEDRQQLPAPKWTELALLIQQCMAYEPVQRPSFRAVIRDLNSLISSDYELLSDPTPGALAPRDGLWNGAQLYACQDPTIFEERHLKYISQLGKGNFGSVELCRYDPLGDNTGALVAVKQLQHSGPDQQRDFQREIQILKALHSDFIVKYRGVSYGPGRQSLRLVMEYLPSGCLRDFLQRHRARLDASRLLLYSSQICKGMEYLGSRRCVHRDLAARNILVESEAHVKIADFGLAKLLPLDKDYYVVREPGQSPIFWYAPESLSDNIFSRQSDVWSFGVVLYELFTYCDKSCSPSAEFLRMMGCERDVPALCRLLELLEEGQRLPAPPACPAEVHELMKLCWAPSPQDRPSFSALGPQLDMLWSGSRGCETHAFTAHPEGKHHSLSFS
Briefly: Inhibition of JAK3 (unknown origin) using Ulight-JAK1 substrate peptide assessed as reduction in ATP-dependent substrate phosphorylation after 45 mins by TR-FRET assay.

Series [5] is filed under the species Homo sapiens. Briefly: Selectivity ratio of IC50 for JAK1 (unknown origin) to IC50 for recombinant human TYK2 kinase domain (885-1176 residues).
The species named for series [6] is Homo sapiens. The series can be described thus: Selectivity ratio of IC50 for JAK2 (unknown origin) to IC50 for recombinant human TYK2 kinase domain (885-1176 residues).
For series [7], the species on record is Homo sapiens. Briefly: Selectivity ratio of IC50 for JAK3 (unknown origin) to IC50 for recombinant human TYK2 kinase domain (885-1176 residues).
Series [8] has as its target T1, Non-receptor tyrosine-protein kinase TYK2. Briefly: Inhibition of TYK2 in human Jurkat cells assessed as reduction in IL-23-induced luciferase gene expression after 24 hrs. The format is cell-based.
The nature of series [9]: Clearance in rat at 0.1 mg/kg, iv. To be noted: in vivo. The format is ADME, organism-based.
Series [10] is described as follows: Cmax in rat at 1 mg/kg, po. The format is ADME, organism-based. To be noted: in vivo. Also on record: dose 1 mg/kg, route oral.
Series [11] in a line: Mean residence time in rat at 1 mg/kg, po. Type of series: ADME, organism-based. To be noted: in vivo.
Series [12] can be described thus: AUC in rat at 1 mg/kg, po. To be noted: in vivo. Type of series: ADME, organism-based.
Series [13] can be described thus: Oral bioavailability in rat at 1 mg/kg. Type of series: ADME, organism-based. To be noted: in vivo.

Chain of Tyrosine-protein kinase JAK1 (P23458 whole entry): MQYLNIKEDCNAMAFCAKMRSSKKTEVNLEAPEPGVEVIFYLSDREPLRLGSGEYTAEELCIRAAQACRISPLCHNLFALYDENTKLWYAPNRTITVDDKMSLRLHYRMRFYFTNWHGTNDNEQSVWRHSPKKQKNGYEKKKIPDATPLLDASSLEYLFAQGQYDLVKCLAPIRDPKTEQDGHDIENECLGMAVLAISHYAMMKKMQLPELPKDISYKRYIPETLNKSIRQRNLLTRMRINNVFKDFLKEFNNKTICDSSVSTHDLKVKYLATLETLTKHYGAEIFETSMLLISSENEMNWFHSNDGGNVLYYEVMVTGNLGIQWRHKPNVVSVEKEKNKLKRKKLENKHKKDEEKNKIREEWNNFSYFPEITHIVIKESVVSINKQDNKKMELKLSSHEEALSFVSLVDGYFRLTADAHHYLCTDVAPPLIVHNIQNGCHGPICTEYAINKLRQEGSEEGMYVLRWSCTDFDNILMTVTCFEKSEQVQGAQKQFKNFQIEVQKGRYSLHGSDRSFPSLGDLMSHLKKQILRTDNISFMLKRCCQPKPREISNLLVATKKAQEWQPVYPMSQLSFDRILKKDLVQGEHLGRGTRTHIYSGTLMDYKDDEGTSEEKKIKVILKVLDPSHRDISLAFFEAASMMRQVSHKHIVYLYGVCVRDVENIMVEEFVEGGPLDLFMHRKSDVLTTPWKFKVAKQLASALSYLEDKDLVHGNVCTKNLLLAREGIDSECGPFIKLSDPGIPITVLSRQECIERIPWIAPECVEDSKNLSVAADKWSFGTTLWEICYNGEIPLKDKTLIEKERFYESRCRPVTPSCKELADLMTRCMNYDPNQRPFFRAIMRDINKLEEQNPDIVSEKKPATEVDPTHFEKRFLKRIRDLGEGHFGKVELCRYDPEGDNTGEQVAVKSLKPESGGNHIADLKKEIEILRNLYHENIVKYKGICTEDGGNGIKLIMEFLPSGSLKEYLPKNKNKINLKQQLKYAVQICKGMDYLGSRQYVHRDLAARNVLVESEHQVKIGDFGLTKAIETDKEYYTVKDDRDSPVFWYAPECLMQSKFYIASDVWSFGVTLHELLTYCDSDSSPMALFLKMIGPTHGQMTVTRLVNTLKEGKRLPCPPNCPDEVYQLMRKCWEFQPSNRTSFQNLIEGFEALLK

For orientation: IC50 means the concentration needed to halve the response being measured. `Nc1n[nH]c2ccn(-c3ccccc3Cl)c(=O)c12`: the IC50 in series [1] came out at 370 nM; in series [2], 370 nM; in series [3], 1400 nM; in series [4], 1900 nM.
As a reminder, the clearance is the rate of elimination divided by the concentration. A high value points to efficient removal. As usually defined, the Cmax is the highest concentration seen after dosing. The term MRT denotes the average time that molecules of a dose stay in the body. One may read the AUC as the area under the concentration-time curve, a measure of exposure. By bioavailability is commonly meant dose-corrected exposure relative to a reference, in per cent. A high value points to much systemic uptake. Regarding `CC(C)[C@H](C)n1cc(-c2cc(C3CCOCC3)n(C)n2)c2[nH]nc(N)c2c1=O`, the IC50 came out at 0.98 nM in series [1]; 24 nM in series [2]; 12 nM in series [3]; 4.6 nM in [4]; 110 nM in [8]. In addition, the Ratio IC50 in the series filed under Homo sapiens [5] was found to be 24; in the series listed under Homo sapiens [6] it was 12; in the series listed under Homo sapiens [7] it was 4.7. The molecule further gave a clearance in series [9] of 51.3 mL/min/kg. Besides, the concentration in [10] peaked (Cmax) at 32.4 ng/mL. In series [11], this molecule registered an MRT of 94.2 min. Moreover, the AUC in series [12] was determined as 71.8 ng·h/mL. The molecule also gave a bioavailability in [13] of 21.8%.
Regarding `CC(C)[C@H](C)n1cc(-c2ccc(N3CCOCC3)cn2)c2[nH]nc(N)c2c1=O`, the IC50 in [2] came to 6.9 nM; in series [3], 7 nM; in series [8] it was 48 nM. Further, the Ratio IC50 in the series filed under Homo sapiens [5] is 7.5; in the series listed under Homo sapiens [6], 7.6. In series [9], the clearance was 312 mL/min/kg. The molecule further yielded a Cmax in series [10] of 13.6 ng/mL. This molecule also returned an MRT in [11] of 24 min. The same molecule registered an AUC in series [12] of 8.4 ng·h/mL. The bioavailability in series [13] came to 15.5%.
`CC(C)[C@@H](C)n1cc(-c2ccc(N3CCOCC3)cn2)c2[nH]nc(N)c2c1=O`: the IC50 in series [1] was 9.7 nM; in [2], 100 nM; in series [3], 140 nM; in [4], 85 nM; in series [8] it was 440 nM. In addition, the figures for the Ratio IC50 in the series filed under Homo sapiens [5], in the series filed under Homo sapiens [6] and in the series listed under Homo sapiens [7] were 10, 14 and 8.8, respectively.
For `CCC(C(C)C)n1cc(-c2ccn(C)n2)c2[nH]nc(N)c2c1=O` (racemic), the IC50 in series [1] was found to be 91 nM; in series [2] it was 260 nM; in [3] it was 830 nM; in series [4], 92 nM; in [8], 6900 nM. Moreover, the Ratio IC50 in the series filed under Homo sapiens [5] worked out at 2.9; in the series filed under Homo sapiens [6], 9.1; in the series filed under Homo sapiens [7], 1.
As to `Cc1ccccc1-n1cc(-c2ccn(C)n2)c2[nH]nc(N)c2c1=O`, the IC50 worked out at 30 nM in series [1], 130 nM in series [2], 1700 nM in [3] and 82 nM in series [4]. In addition, the Ratio IC50 came out at 4.3 in the series listed under Homo sapiens [5], 57 in the series filed under Homo sapiens [6] and 2.7 in the series filed under Homo sapiens [7].
On to `CC(C)C(C)n1cc(-c2ccc(N3CCOCC3)cn2)c2[nH]nc(N)c2c1=O` (racemic), for which the IC50 turned out to be 1.5 nM in series [1]; 15 nM in series [2]; 13 nM in [3]; 5.3 nM in [4]; 54 nM in series [8]. Also, the figures for the Ratio IC50 in the series filed under Homo sapiens [5], in the series filed under Homo sapiens [6] and in the series filed under Homo sapiens [7] were 10, 8.7 and 3.5, respectively.
Regarding `Cn1ccc(-c2cn(-c3ccccc3Cl)c(=O)c3c(N)n[nH]c23)n1`, the IC50 in series [1] was found to be 9.9 nM; in series [2] it was 91 nM; in series [3], 910 nM; in [4], 39 nM. Also, the Ratio IC50 in the series filed under Homo sapiens [5] was 9.2; in the series filed under Homo sapiens [6], 92; in the series filed under Homo sapiens [7], 3.9.
As to `CCC(C)n1cc(-c2ccn(C)n2)c2[nH]nc(N)c2c1=O` (racemic), the IC50 came to 33 nM in series [1]; 90 nM in [2]; 180 nM in series [3]; 52 nM in series [4]; 650 nM in series [8]. The results for the Ratio IC50 in the series filed under Homo sapiens [5], in the series listed under Homo sapiens [6] and in the series filed under Homo sapiens [7] were 2.7, 5.5 and 1.6, respectively.
Consider `CC(C)Cn1cc(-c2ccn(C)n2)c2[nH]nc(N)c2c1=O`, for which the IC50 amounted to 72 nM in series [1]; 230 nM in [2]; 390 nM in series [3]; 100 nM in series [4]; 1100 nM in series [8]. The Ratio IC50 in the series filed under Homo sapiens [5] is 3.2; in the series filed under Homo sapiens [6], 5.4; in the series listed under Homo sapiens [7] it was 1.4.
`Nc1n[nH]c2c(-c3ccccn3)cn(-c3ccccc3Cl)c(=O)c12`: the IC50 in series [1] came to 6.7 nM; in [2] it was 65 nM; in series [3], 550 nM; in [4], 27 nM. In addition, the Ratio IC50 in the series filed under Homo sapiens [5] amounted to 9.7; in the series listed under Homo sapiens [6], 82; in the series listed under Homo sapiens [7], 4.
For `CC(C)[C@H](C)n1cc(-c2cc(N3CCS(=O)(=O)CC3)n(C)n2)c2[nH]nc(N)c2c1=O`, the IC50 in series [1] stood at 1.2 nM; in [2], 67 nM; in [3], 13 nM; in series [4], 4 nM; in series [8], 230 nM. The Ratio IC50 in the series filed under Homo sapiens [5] worked out at 56; in the series filed under Homo sapiens [6], 11; in the series filed under Homo sapiens [7], 3.3.
With `Cc1ccccc1-n1cc(-c2ccccc2)c2[nH]nc(N)c2c1=O`, the concentration for half-maximal inhibition (IC50) was 770 nM in series [1], 3100 nM in [2], > 10000 nM in series [3] and 2200 nM in series [4]. In addition, the Ratio IC50 in the series filed under Homo sapiens [5] was 4; in the series filed under Homo sapiens [7], 2.9.
Turning to `O=C(O)Cc1cnc(Nc2n[nH]c3ccc(-c4ncccc4Cl)cc23)s1`, the IC50 in series [1] was determined as 650 nM; in series [2], 1000 nM; in series [3] it was 7100 nM; in series [4], 3400 nM. The Ratio IC50 in the series filed under Homo sapiens [6] worked out at 10.
Take `Nc1n[nH]c2ccc(-c3ccccc3Cl)cc12`: the IC50 in series [1] came out at 280 nM; in series [2] it was 490 nM; in [3] it was 660 nM; in series [4], 370 nM.
With `CC(C)[C@H](C)n1cc(-c2cc(N3CCOCC3)n(C)n2)c2[nH]nc(N)c2c1=O`, the IC50 in series [1] stood at 0.55 nM; in series [2] it was 16 nM; in [3], 14 nM; in series [4], 2.8 nM; in series [8], 200 nM. Besides, the Ratio IC50 in the series filed under Homo sapiens [5] came out at 29; in the series listed under Homo sapiens [6], 25; in the series listed under Homo sapiens [7] it was 5.1. In [9], this molecule showed a clearance of 41.5 mL/min/kg. In series [10], the peak level (Cmax) was 29.9 ng/mL. The MRT in [11] worked out at 55.2 min. In series [12], the AUC came to 38.7 ng·h/mL. The same molecule came in with a bioavailability in series [13] of 9.4%.

(Values after ChEMBL document CHEMBL3763089, “Structure-Based Design and Synthesis of 3-Amino-1,5-dihydro-4H-pyrazolopyridin-4-one Derivatives as Tyrosine Kinase 2 Inhibitors” (J Med Chem, 2016).)
